Data as given in patent US9321756B2, “Azole compounds as PIM inhibitors” (priority 2011, dated 2016).
Read-outs that look alike come from different tables or passages of the source.

Assays:
[1] = molecular target: full length recombinant Pim-3 (Homo sapiens (Human), UniProt Q86V86); assay: Pim enzyme assay (HTRF, phosphorylation of biotinylated-BAD (S112) peptide), Pim-3; type: biochemical; settings: Pim-3 enzyme assay; read-out: Pim3 IC50
In short: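 Full-length recombinant Pim-3 phosphorylated biotinylated BAD (S112) peptide in 60 mM Hepes pH 7.0, 0.05% BSA, 2 mM DTT for 1 h 30 min at 22 °C. After EDTA stop, HTRF was read with Eu anti-phospho-BAD and streptavidin-APC. IC50 came from 4-parameter logistic fit of percent-of-control values.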

[2] = molecular target: full length recombinant Pim-2 (Homo sapiens (Human), UniProt Q9P1W9); assay: Pim enzyme assay (HTRF, phosphorylation of biotinylated-BAD (S112) peptide), Pim-2; type: biochemical; settings: Pim-2 enzyme assay; read-out: Pim2_IC50
full length recombinant Pim-2, sequence (Q9P1W9 whole entry): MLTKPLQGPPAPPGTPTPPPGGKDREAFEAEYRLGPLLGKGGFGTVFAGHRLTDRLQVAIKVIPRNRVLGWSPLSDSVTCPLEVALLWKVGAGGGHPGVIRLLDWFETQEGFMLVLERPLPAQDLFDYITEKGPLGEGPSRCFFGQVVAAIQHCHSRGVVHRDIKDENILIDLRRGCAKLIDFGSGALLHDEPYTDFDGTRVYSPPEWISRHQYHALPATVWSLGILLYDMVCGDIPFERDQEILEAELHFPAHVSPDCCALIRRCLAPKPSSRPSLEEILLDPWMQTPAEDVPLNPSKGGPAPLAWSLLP

[3] = molecular target: full length recombinant Pim-1 (Homo sapiens (Human), UniProt P11309); assay: Pim enzyme assay (HTRF, phosphorylation of biotinylated-BAD (S112) peptide), Pim-1; type: biochemical; settings: Pim-1 enzyme assay; read-out: Pim_1_IC50
full length recombinant Pim-1, sequence (P11309 whole entry): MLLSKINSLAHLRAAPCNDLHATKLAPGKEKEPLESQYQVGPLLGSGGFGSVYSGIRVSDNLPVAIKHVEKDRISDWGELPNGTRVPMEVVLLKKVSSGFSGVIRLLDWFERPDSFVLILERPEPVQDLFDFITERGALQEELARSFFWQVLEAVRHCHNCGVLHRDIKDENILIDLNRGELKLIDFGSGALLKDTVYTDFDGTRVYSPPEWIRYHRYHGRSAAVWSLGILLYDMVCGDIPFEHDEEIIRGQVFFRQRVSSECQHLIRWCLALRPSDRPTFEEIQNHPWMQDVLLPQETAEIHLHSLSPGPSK

[4] = system: Pim-1 stably transfected U2OS human osteogenic sarcoma line; assay: Pim cell assay U2OS (phospho-BAD normalized against total BAD), Pim-1 transfected; type: cell-based; settings: Homo sapiens, U2OS
Experimental: (§1) The cell lines used in the assay were generated by the stable transfection of either Pim-1 or Pim-2 into the U2OS human osteogenic sarcoma line. The assay for determination of the Pim activity in the engineered U2OS cell lines measures levels of phospho-BAD normalized against total BAD protein levels. It was conducted as follows:
(§2) The adherent cells were dissociated from the flasks using non-enzymatic cell dissociation solution (Sigma #C5914). […] The cells were then incubated overnight at 37° C., 5% CO2.
(§3) In addition to the 10-point dosing curve of the test compound, DMSO alone was run as the high control.
(§4) This dilution in DMSO was then diluted again into cell growth medium. Aliquots (12 μL) of the compound diluted in growth medium were then transferred to the appropriate wells of the 96-well plates containing cells to a final DMSO concentration of 0.3%. The cell plates were then incubated with compound for 29 min at 37° C., 5% CO2.
(§5) The cell plates containing lysis buffer were then immediately stored at −70° C.
(§6) These prepared lysates were then assayed for phospho and total BAD according to the manufacturer's protocols (Meso Scale Diagnostics, Cat#K15103C-3 & #K15103D-3). The plates were read on the MSD Sector Imager 6000, and results were calculated according to the assay protocols ((% Phosphoprotein=((2×Phospho signal)/(Phospho signal+Total signal))×100)).

[5] = system: Pim-2 stably transfected U2OS human osteogenic sarcoma line; assay: Pim cell assay U2OS (phospho-BAD normalized against total BAD), Pim-2 transfected; type: cell-based; settings: Homo sapiens; U2OS cells, Pim-2 transfected; read-out: U2OS Pim2_Cell_IC50
Experimental: as §1, §2, §3, §4, §5, §6

[6] = read-out: U2OS Pim1_Cell_IC50, U2OS cells, Pim-1 transfected

SMILES | IC50 [1] [nM] | IC50 [2] [nM] | IC50 [3] [nM] | IC50 ([4]; read-out: U2OS Pim1_Cell_IC50) [nM] | IC50 [5] [nM] | IC50 [4, 6] [nM]
Nc1nnc(-c2ccc3[nH]cc(-c4nccc(Oc5ccccc5)n4)c3c2)o1 [Example 106, 5-(3-(4-phenoxy-2-pyrimidinyl)-1H-indol-5-yl)-1,3,4-oxadiazol-2-amine] | 5.69 | 6.39 | 15.2 | 155 | 1190 | 
CC(C)Oc1cncc(-c2c[nH]c3ccc(-c4nnc(N)o4)cc23)n1 [Example 76, 5-(3-(6-(1-methylethoxy)-2-pyrazinyl)-1H-indol-5-yl)-1,3,4-oxadiazol-2-amine] | 2.47 | 5.18 | 5.59 | 35.8 | 636 | 
Nc1nnc(-c2ccc3[nH]cc(-c4nccc(-c5ccccc5Cl)n4)c3c2)o1 [Example 118, 5-(3-(4-(2-chlorophenyl)-2-pyrimidinyl)-1H-indol-5-yl)-1,3,4-oxadiazol-2-amine] | 15.7 | 19.2 | 16.7 | 217 | > 31600 | 
Nc1nnc(-c2ccc3[nH]cc(-c4cncc(-c5ccccc5)n4)c3c2)o1 [Example 115, 5-(3-(6-phenyl-2-pyrazinyl)-1H-indol-5-yl)-1,3,4-oxadiazol-2-amine] | 5.36 | 14 | 9.23 | 105 | > 31600 | 
CCOc1cncc(-c2c[nH]c3ccc(-c4nnc(N)s4)cc23)n1 [Example 19, 5-(3-(6-ethoxypyrazin-2-yl)-1H-indol-5-yl)-1,3,4-thiadiazol-2-amine] | 7.8 | 27.8 | 19.7 |  | 2750 | 205
Nc1nnc(-c2ccc3[nH]cc(-c4nccc(Nc5ccccc5)n4)c3c2)o1 [Example 108, 2-(5-(5-amino-1,3,4-oxadiazol-2-yl)-1H-indol-3-yl)-N-phenyl-4-pyrimidinamine] | 2.07 | 3.1 | 9.41 | 711 | 1410 | 
Nc1nnc(-c2ccc3[nH]cc(-c4cncc(OC5CCCC5)n4)c3c2)s1 [Example 160, 5-(3-(6-(cyclopentyloxy)-2-pyrazinyl)-1H-indol-5-yl)-1,3,4-thiadiazol-2-amine] | 10.7 | 24.6 | 10.5 |  | 6540 | 176
Nc1nnc(-c2ccc3[nH]cc(-c4cccc(N5CCOCC5)n4)c3c2)s1 [Example 24, 5-(3-(6-morpholinopyridin-2-yl)-1H-indol-5-yl)-1,3,4-thiadiazol-2-amine] | 5.59 | 58.7 |  |  | 7570 | 232
Nc1nnc(-c2ccc3[nH]cc(-c4cncc(NCC5CC5)n4)c3c2)s1 [Example 207, 6-(5-(5-amino-1,3,4-thiadiazol-2-yl)-1H-indol-3-yl)-N-(cyclopropylmethyl)-2-pyrazinamine] | 1.68 | 7.71 | 1.77 | 37.4 | 1090 | 
CNc1nnc(-c2ccc3[nH]cc(-c4csc(-n5cnc(C)c5)n4)c3c2)s1 [Example 233, N-methyl-5-(3-(2-(4-methyl-1H-imidazol-1-yl)-1,3-thiazol-4-yl)-1H-indol-5-yl)-1,3,4-thiadiazol-2-amine] | 28 |  | 100 |  | > 31600 | 1400
Nc1nnc(-c2ccc3[nH]cc(-c4cncc(N5CCC(F)(F)CC5)n4)c3c2)o1 [Example 2, 5-(3-(6-(4,4-difluoropiperidin-1-yl)pyrazin-2-yl)-1H-indol-5-yl)-1,3,4-oxadiazol-2-amine] | 1.08 |  | 1.94 |  | 419 | 29.4
Nc1nnc(-c2ccc3[nH]cc(-c4nccc(-c5ccccc5F)n4)c3c2)o1 [Example 123, 5-(3-(4-(2-fluorophenyl)-2-pyrimidinyl)-1H-indol-5-yl)-1,3,4-oxadiazol-2-amine] | 4.97 |  | 10.6 |  | 1350 | 147
